This experiment concerns ESC-induced Oct4-GFP re-activation in NSCs. The experiment can be described thus: CLEAR analysis of ESC fusion-induced reprogramming (PEG-induced fusion of Z-Red ESCs and CIPOE NSCs, flow cytometry). From the text: CLEAR strategy uses engineered ESCs and NSCs for monitoring fusion-induced DsRed expression and reprogramming-induced GFP expression (FIG. 1A). Z-Red ESCs were derived from a clonal ESC line containing one copy of a transgene (CAG-loxP-LacZ::neomycin-polyA-loxP-DsRed.T3) as a Cre recombination excision reporter.
Adult NSCs were isolated from Oct4-GFP (GOF 18-A PE-EGFP) transgenic mice and transduced by retroviruses to stably co-express Cre and the puromycin resistance gene through a bicistronic cassette (termed CIPOE NSCs hereafter). Somatic cells with Oct4-GFP transgene integration have been used previously to investigate reprogramming, in which the regulatory elements of Oct4 direct reliable GFP reactivation from somatic genomes in reprogrammed ESC-like hybrid cells (also see FIG. 3). Multiple CIPOE NSC lines from Oct4-GFP transgenic mice were established, characterized and used for subsequent cell fusion experiments.
To quantitatively analyze the reprogramming-induced Oct4-GFP re-activation, dual-color flow cytometry was used to display and measure the cell population that underwent PEG-induced cell fusion. Viable cells were identified by their typical FSC (Forward Scatter) and SSC (Side Scatter) properties. To ensure appropriate gating for […] and DsRed+ events and to compensate the spectrum crossover of GFP and DsRed signals, the system was first calibrated using multiple control cells, including Z-Red ESCs, CIPOE NSCs, mixed Z-Red ESCs and CIPOE NSCs without PEG. Z-Red ESCs transfected with a constitutive Cre expression plasmid, and CIPOE NSCs transfected with a Cre excision reporter plasmid (FIG. 4A).
ESC fusion-induced Oct4 re-activation from NSCs was quantitatively measured using two different approaches. In the first approach, the reprogramming frequency (Rf) is determined by the ratio of GFP DsRed+ cells to total DsRed+ cells. […] In the second approach, the reprogramming efficacy is determined by the distribution of GFP fluorescence intensities of individual cells from the DsRed+ population (FIG. 4C). This analysis provides a measurement of the efficiency of Oct4-GFP re-activation in NSCs after successful fusion.
The protocol was optimized for PEG-induced cell fusion between ESCs and NSCs to achieve maximum efficiency and minimal toxicity. Equal numbers of ESCs and NSCs were mixed thoroughly and spun down in PBS. The pellet was loosened by gentle tapping and 50% PEG (500 μl for 1×10^7 cells) was added to the cells continuously over one minute while swirling the mixture in 37° C. water bath Next, 2 ml of ESC medium was layered on top of PEG-cell mixture and one-minute incubation in 37° C., followed by low-speed centrifugation at 1,800 rpm for 5 minutes. After removing the supernatant, the pellet was incubated with ESC medium for one minute, washed, resuspended and plated onto gelatin-coated dishes and grown in Dubelcco's Modified Eagle's Medium, 15% fetal bovine serum supplemented with mouse leukemia inhibitory factor (ESGRO), 0.1 mM nonessential amino acids, 0.1 mM β-mercaptoethanol, and 50 U/ml penicillin/50 μg/ml streptomycin (ESC medium). […] The following pharmacological inhibitors were applied in ESC-fusion experiments only during the first 48 hours after fusion. DMOG (5-10 μM; BioMol), Anacardic acid (5-10 μM; Calbiochem), Trichostatin A (TSA, 100 nM-1 μM; Sigma) and azidothymidine (AZT, 1-5 μM; Sigma).
On the technique in general: Flow cytometry measures light scatter and fluorescence of single cells or particles in a stream.

[1] abbreviates: 10 μM, 48-hour treatment, analyzed at day 4, vs DMSO.

Entries after “also recorded” stand apart in the source; their conditions may differ.

Turning to `COC(=O)CNC(=O)C(=O)OC` [DMOG, dimethyloxalylglycine], the “Effects (on reprogramming)” value (5 μM, applied only during the first 48 hours after fusion) is “strong reprogramming deficit”. For the same compound, under setting [1], the reprogramming efficacy entry is reported as “significant decreases” and the reprogramming frequency result is “significant decreases”. The “ESC-induced Oct4 re-activation in NSCs” value (inhibitor treatment after fusion) is recorded as “considerably reduced; also recorded: attenuates”.
